# Reference: ChEMBL document CHEMBL1201862, “PubChem BioAssay data set” (2004)
# Calls of active or inactive are those of the source.
# Columns and labels:
# Interleukin-8 [1] = biological target: T1, Interleukin-8 (Homo sapiens, UniProt P10145); assay: Dose Response confirmation of uHTS small molecule hits for cystic fibrosis induced NFkb Inhibitors in a TNFa-induced IL8 counterscreen.; format: functional; conditions: read-out: IC50_Mean
# T1 sequence (P10145 whole entry): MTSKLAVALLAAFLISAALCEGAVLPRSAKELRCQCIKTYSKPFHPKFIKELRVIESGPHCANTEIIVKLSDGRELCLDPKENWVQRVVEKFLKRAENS
# Interleukin-8 [2] = biological target: T1, Interleukin-8; assay: Dose Response confirmation of uHTS small molecule hits for cystic fibrosis induced NFkb Inhibitors in a PAF-induced IL8 counterscreen.; format: functional; conditions: read-out: IC50_Mean
# [3] = biological target: Ras and Rab interactor 1/Tyrosine-protein kinase ABL1 (Homo sapiens, UniProt P00519+Q13671); format: functional;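 also: biochemical TR-FRET dose-response test measuring inhibition of binding between Rin1 and Abl proteins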
# Ras and Rab interactor 1/Tyrosine-protein kinase ABL1, sequence (P00519 whole entry): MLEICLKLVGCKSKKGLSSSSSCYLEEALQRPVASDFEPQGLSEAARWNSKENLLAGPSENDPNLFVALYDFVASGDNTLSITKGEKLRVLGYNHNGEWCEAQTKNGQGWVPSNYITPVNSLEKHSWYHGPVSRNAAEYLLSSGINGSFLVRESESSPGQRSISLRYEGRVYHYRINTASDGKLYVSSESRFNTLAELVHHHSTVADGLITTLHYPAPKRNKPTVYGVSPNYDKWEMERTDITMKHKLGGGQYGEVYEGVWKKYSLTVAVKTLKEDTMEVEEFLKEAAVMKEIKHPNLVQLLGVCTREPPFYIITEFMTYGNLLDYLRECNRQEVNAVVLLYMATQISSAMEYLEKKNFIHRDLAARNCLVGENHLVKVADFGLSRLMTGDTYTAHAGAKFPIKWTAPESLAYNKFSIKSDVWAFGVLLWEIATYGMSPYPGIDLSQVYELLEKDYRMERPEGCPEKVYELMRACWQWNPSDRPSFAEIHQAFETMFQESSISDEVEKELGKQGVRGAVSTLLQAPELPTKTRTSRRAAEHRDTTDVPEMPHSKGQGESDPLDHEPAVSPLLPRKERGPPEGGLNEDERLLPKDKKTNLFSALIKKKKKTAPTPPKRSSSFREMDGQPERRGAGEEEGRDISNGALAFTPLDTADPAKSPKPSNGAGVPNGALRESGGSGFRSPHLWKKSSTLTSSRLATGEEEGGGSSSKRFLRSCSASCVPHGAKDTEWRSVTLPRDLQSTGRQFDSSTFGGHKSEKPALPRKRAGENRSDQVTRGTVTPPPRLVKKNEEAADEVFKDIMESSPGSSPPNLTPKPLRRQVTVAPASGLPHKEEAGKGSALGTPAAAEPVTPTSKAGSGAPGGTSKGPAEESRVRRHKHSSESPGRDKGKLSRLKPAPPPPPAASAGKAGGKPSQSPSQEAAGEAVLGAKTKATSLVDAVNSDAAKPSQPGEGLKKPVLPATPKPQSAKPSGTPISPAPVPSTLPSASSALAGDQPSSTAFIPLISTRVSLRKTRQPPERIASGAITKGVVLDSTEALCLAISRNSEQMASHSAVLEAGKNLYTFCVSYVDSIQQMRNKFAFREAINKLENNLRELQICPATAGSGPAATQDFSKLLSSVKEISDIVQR
# Ras and Rab interactor 1/Tyrosine-protein kinase ABL1, sequence (Q13671 whole entry): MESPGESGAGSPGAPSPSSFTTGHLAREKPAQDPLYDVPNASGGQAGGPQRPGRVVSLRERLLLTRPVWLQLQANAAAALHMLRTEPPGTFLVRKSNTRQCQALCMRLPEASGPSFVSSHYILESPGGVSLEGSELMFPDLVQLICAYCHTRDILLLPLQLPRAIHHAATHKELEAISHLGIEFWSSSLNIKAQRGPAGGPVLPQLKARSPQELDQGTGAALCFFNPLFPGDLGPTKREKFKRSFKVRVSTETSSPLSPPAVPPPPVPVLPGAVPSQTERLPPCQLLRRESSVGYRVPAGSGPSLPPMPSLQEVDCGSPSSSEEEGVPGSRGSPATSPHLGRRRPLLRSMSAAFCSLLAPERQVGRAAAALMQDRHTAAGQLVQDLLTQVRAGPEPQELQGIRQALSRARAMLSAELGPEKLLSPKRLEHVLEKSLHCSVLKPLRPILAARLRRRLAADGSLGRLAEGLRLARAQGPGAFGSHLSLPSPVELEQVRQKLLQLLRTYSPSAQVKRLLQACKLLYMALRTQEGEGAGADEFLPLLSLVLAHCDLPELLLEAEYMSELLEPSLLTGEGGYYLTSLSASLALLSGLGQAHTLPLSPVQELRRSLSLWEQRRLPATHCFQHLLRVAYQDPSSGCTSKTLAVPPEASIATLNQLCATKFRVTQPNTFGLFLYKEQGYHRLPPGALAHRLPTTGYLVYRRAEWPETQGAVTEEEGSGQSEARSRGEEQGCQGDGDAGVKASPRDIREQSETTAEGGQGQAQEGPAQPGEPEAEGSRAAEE
# [4] = inhibitors of SNCA 5'UTR-driven reporter translation, confirmation, H4 neuroglioma cells, luminescence (AID 1988); format: functional, cell-based
# [5] = biological target: T2, Low molecular weight phosphotyrosine protein phosphatase (Homo sapiens, UniProt P24666); format: functional; conditions: read-out: IC50_Mean
# T2 sequence (P24666 whole entry): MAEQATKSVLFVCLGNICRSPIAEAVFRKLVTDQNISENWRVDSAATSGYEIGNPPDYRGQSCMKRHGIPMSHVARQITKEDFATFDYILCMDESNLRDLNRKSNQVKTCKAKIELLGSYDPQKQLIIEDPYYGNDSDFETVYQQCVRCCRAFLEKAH
# [6] = HeLa 2N DNA content increase, dose response, cell-based, IC50 (AID 1117349); format: functional
# [7] = inhibitors of PGC1a acetylation in cells, dose response, cell-based, cherry-picked samples (AID 720514); format: functional;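 also: potency may reflect raised or lowered acetylation signal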
# BJ = assay: cytotoxicity toward Ras-transformed BJeLR fibroblasts, dose response, cell-based, alamar blue fluorescence, cherrypicked samples (AID 2631); format: functional; conditions: Homo sapiens;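 also: confirmatory dose-response assay in RAS-dependent BJ fibroblasts engineered with TERT, LT and ST, with cytotoxicity read by fluorescence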
# Cytochrome P450 1A2 = biological target: T3, Cytochrome P450 1A2 (Homo sapiens, UniProt P05177);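 also: PubChem cytochrome P450 panel assay, CYP1A2 panel member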
# T3 sequence (P05177 whole entry): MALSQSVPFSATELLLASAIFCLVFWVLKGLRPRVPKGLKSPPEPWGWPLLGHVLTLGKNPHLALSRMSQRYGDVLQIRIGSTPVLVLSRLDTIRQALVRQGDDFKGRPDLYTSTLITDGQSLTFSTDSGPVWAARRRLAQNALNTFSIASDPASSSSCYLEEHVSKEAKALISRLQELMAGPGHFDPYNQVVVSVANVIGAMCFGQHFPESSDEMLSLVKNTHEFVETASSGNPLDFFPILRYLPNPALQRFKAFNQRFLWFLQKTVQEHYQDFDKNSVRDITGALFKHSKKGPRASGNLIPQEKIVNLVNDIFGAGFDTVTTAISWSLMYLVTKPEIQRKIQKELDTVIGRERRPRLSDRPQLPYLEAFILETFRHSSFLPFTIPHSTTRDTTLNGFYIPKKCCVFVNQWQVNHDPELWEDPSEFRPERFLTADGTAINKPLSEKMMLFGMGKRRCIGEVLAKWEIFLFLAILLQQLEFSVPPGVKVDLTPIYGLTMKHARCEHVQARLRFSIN
# [8] = Luminescence Cell-Based Dose Response HTS to Identify Inhibitors of 5'UTR Stem-Loop Driven Prion Protein mRNA Translation in H4 Neuroglioblastoma Cells. [Related pubchem assays: 1827 (Project Summary), 1813 (Primary HTS)]; format: functional
# [9] = inhibitors of firefly luciferase expression or activity, dose response, H4 neuroglioma cells, luminescence (AID 1990); format: functional, cell-based
# [10] = biological target: T2, Low molecular weight phosphotyrosine protein phosphatase; format: functional; conditions: read-out: IC50_Mean; remark: listed apart in the source
# Cytochrome P450 2C19 = Cytochrome P450 2C19 (Homo sapiens, UniProt P33261); assay: Cytochrome panel assay with activity outcomes. Panel member name: p450-cyp2c19 Compounds with AC50 equal or less than 10 uM are considered active; format: functional
# Cytochrome P450 2C19, sequence (P33261 whole entry): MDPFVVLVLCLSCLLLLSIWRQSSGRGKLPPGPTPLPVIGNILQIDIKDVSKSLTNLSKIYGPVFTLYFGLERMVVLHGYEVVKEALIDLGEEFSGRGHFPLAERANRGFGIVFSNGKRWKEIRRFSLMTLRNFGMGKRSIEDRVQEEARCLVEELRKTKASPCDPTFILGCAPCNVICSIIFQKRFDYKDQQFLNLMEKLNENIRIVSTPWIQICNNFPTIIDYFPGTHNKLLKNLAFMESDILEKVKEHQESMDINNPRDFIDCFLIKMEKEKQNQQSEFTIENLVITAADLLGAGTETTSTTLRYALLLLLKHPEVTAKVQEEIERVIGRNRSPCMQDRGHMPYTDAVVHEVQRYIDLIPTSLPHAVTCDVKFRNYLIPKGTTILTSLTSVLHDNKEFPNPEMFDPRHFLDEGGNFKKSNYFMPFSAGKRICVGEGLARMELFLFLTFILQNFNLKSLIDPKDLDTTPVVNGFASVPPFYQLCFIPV
# [11] = test system: Streptococcus sp. 'group A'; assay: growth inhibition of control SK(-) GAS strain, dose response, counter-screen for streptokinase expression inhibitor project, luminescence, kanamycin, BacTiterGlo, confirmation (AID 1900); format: functional, organism-based
# [12] = HeLa 4N DNA content increase, dose response, cell-based, IC50 (AID 1117351); format: functional
# Cytochrome P450 2D6 = Cytochrome P450 2D6 (Homo sapiens, UniProt P10635);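 also: CYP2D6 member of a cytochrome P450 panel assay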
# Streptococcus = assay: Group A Streptococcus viability loss, dose response, counter-screen for streptokinase expression inhibitor project, luminescence, BacTiterGlo (AID 1915); format: functional, organism-based;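 also: potency for reduction of bacterial viability or growth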
# Cytochrome P450 2C9 = Cytochrome P450 2C9 (Homo sapiens, UniProt P11712)
# Cytochrome P450 2C9, sequence (P11712 whole entry): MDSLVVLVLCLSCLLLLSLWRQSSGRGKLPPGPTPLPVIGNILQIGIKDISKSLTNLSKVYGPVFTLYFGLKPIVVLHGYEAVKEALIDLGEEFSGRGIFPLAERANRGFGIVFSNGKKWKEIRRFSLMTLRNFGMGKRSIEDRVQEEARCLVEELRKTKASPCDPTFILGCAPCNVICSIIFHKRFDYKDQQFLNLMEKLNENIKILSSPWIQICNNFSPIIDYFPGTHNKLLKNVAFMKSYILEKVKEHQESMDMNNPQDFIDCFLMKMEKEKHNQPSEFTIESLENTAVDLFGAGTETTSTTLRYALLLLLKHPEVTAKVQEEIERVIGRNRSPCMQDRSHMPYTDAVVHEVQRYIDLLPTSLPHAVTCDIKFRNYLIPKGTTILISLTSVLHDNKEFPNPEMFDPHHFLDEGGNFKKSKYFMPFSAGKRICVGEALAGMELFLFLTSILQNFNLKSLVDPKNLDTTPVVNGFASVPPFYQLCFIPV
# Streptokinase A = biological target: T4, Streptokinase A (Streptococcus pyogenes serotype M1, UniProt P10520); assay: S. pyogenes streptokinase expression inhibitors, potency, dose response, plasminogen activation absorbance, OD405 (AID 1914); format: functional, Streptococcus pyogenes M1 GAS;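 also: secreted streptokinase activity via plasminogen activation per viability signal from cell pellet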
# T4 sequence (P10520 whole entry): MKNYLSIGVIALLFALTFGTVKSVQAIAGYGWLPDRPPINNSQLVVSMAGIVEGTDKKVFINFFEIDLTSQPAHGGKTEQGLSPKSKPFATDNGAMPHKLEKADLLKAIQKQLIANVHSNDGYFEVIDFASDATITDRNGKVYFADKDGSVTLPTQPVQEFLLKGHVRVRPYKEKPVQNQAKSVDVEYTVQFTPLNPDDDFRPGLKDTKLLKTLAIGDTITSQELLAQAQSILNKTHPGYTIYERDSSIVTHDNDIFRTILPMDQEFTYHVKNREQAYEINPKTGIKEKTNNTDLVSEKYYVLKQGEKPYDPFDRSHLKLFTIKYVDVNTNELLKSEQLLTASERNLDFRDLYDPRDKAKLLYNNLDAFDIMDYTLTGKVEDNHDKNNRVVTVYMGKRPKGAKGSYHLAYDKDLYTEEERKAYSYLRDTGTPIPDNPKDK
# [13] = biological target: T5, Sentrin-specific protease 1 (Homo sapiens, UniProt Q9P0U3); assay: potency of human SENP1 inhibitors, dose response, biochemical, kinetic FRET (AID 651697); format: functional; conditions: read-out: IC50_Mean
# T5 sequence (Q9P0U3 whole entry, the tested form may be a part): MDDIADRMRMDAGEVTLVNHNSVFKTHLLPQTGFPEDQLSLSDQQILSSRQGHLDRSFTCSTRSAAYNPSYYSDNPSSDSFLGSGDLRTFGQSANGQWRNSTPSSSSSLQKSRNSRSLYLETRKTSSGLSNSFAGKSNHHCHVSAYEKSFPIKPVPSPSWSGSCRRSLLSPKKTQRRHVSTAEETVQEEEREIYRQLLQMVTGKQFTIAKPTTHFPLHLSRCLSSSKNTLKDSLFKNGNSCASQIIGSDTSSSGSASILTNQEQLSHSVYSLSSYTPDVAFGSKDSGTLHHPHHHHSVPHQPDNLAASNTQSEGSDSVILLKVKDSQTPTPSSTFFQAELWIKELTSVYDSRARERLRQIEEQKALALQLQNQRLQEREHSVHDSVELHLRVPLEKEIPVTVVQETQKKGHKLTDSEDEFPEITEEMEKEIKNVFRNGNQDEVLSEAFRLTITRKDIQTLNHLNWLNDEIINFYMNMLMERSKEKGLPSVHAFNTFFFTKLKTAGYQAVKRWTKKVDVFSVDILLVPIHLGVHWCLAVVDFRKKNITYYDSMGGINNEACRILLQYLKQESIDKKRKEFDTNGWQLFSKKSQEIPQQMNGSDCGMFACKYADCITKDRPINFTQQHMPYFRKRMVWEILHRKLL
# [14] = biological target: T5, Sentrin-specific protease 1; assay: Dose response confirmation of small molecule inhibitors of the catalytic domain of the SUMO protease, SENP1 in a FRET assay.; format: functional; conditions: read-out: IC50_Mean
# Protein S100-A4 = Protein S100-A4 (Homo sapiens, UniProt P26447); assay: S100A4-myosin IIA binding inhibitor potency, dose response, biochemical, fluorescence polarization, cherry-picked hits (AID 687001); format: functional
# Protein S100-A4, sequence (P26447 whole entry): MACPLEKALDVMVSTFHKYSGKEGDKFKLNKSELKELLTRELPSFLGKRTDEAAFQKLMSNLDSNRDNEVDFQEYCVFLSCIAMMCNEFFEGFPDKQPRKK
# [15] = biological target: T6, Neuropeptides B/W receptor type 1 (Homo sapiens, UniProt P48145); assay: GPR7 antagonist potency, late-stage follow-up, cell-based, fluorescence, dose response, set 5 (AID 588566); format: functional
# T6 sequence (P48145 whole entry): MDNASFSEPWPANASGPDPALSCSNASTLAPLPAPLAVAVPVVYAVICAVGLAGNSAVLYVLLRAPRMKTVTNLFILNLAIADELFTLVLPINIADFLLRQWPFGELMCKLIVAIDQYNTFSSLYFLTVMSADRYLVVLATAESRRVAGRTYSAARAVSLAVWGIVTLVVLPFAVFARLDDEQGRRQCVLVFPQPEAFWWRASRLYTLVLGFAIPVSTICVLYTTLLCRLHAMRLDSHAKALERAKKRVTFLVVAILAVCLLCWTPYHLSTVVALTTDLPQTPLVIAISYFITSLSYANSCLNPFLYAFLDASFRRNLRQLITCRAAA
# [16] = biological target: Melanin-concentrating hormone receptor 1 (Homo sapiens, UniProt Q99705); assay: Late-stage fluorescence-based counterscreen for antagonists of the G-protein coupled receptor 7 (GPR7): cell-based dose response assay to identify antagonists of the melanin-concentrating hormone receptor 1 (MCHR1) Set 5.; format: functional
# [17] = biological target: Broad substrate specificity ATP-binding cassette transporter ABCG2 (Homo sapiens, UniProt Q9UNQ0); assay: ABCG2 efflux pump inhibitors, dose response, Ig-MXP3 cells, flow cytometry (AID 1690); format: functional
# [18] = biological target: ATP-dependent translocase ABCB1 (Homo sapiens, UniProt P08183); assay: ABCB1 efflux pump inhibitor potency, dose response, Jurkat-DNR cells, JC-1, flow cytometry (AID 1689); format: functional
# ATP-dependent translocase ABCB1, sequence (P08183 whole entry): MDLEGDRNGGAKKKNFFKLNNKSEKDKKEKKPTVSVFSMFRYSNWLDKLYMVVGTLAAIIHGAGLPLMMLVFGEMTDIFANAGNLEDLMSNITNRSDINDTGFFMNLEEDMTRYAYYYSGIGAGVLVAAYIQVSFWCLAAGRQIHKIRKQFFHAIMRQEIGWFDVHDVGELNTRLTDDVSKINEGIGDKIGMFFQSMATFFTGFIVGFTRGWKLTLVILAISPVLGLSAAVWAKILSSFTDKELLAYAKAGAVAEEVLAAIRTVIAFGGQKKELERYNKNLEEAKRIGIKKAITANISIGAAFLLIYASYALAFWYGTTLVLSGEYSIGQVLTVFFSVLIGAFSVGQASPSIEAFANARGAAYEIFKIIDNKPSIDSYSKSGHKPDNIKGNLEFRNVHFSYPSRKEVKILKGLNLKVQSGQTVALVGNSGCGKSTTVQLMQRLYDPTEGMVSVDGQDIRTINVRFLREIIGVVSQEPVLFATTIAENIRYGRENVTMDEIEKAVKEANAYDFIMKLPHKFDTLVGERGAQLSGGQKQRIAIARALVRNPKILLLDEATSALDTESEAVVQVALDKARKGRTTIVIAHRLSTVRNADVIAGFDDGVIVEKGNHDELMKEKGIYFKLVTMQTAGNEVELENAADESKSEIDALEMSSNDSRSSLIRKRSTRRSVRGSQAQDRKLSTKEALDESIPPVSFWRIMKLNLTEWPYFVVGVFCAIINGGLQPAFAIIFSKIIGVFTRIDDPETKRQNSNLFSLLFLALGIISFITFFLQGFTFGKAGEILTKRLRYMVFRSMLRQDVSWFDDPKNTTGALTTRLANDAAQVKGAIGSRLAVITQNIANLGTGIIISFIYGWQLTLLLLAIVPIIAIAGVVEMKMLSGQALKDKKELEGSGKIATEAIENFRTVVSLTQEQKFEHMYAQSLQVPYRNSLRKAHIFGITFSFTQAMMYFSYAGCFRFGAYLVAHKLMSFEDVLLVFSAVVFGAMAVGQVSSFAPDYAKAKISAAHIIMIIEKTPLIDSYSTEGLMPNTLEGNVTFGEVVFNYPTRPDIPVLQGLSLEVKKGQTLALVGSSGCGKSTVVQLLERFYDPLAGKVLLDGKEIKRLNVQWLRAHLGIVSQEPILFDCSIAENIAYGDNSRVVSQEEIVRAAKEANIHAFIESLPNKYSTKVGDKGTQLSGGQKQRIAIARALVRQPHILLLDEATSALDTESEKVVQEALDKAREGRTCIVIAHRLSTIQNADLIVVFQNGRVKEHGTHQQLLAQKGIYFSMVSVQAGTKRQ
structure (smiles),measurement,setting,value
Brc1ccc2ncnc(NCc3cccnc3)c2c1,IC50,Interleukin-8 [1],1.77 µM (active)
same,IC50,Interleukin-8 [2],4.61 µM (active)
CC1(C)Cc2nc3sc4c(=O)[nH]cnc4c3cc2CS1,IC50,[3],> 0.302 µM (active)
CCc1nc(N)nc(N)c1-c1ccc(Cl)cc1 [PYRIMETHAMINE],EC50,[4],0.2 µM (active)
same,IC50,[5],32.9 µM (inactive)
same,IC50,[6],> 10 µM (inactive)
same,AC50,[7],23 µM (active)
same,EC50,BJ,> 133 µM (inactive)
same,AC50,Cytochrome P450 1A2,10 µM (inconclusive)
same,EC50,[8],10.5 µM (active)
same,EC50,[9],3.81 µM (active)
same,IC50,[10],16.5 µM (active)
same,AC50,Cytochrome P450 2C19,inactive
same,EC50,[11],3.09 µM (active)
same,IC50,[12],> 10 µM (inactive)
same,AC50,Cytochrome P450 2D6,7.94 µM (inconclusive)
same,EC50,Streptococcus,51.2 µM (active)
same,AC50,Cytochrome P450 2C9,inactive
same,EC50,Streptokinase A,> 150 µM (not active)
N=c1oc2ccc([N+](=O)[O-])cc2cc1C(=O)NCc1ccccc1,IC50,[13],9.4 µM (active)
same,IC50,[14],2.45 µM (active)
CC1(C)c2ccccc2N2CC(=O)N(CC(N)=O)C21C (stereo unspecified),AC50,Protein S100-A4,1.93 µM (active)
CCOC(=O)C(C#N)c1c(Cl)cnn(C2c3ccccc3-c3ccccc32)c1=O (stereo unspecified),IC50,[15],2.9 µM (active)
same,IC50,[16],7.86 µM (active)
COc1ccc(CN2C(=O)c3ccccc3C2=O)cc1C(=O)Nc1ccccc1N1CCOCC1,EC50,[17],0.34 µM (inactive)
same,EC50,[18],0.428 µM (active)
